How the values were obtained:
Assay type in all cases: cell-based
[1] = Cytotoxicity in PHH natural infection assay (Cell Counting Kit-8); conditions: HBV-infected primary human hepatocytes, CCK8
Procedure: (§1) Detailed procedures regarding primary human hepatocyte (PHH) HBV natural infection assay are described as below. One tube of frozen PHH (10 million cells) is thawed in 37° C. water bath and then transferred to 20 mL of PHH thawing medium (Sigma, InVitroGRO HT Medium, Cat. S03319) with gently mixing. The cells were then centrifuged at […] for 5 min, the supernatant was discarded and the tube was refilled with 25 mL of PHH plating medium (Sigma, InVitroGRO CP Medium, Cat. S03317). The tube was shaken very gently to re-suspend all cells, and then 50 μL of cells were transferred to each well 384-well collagen I coated plate with appropriate liquid handling equipment, e.g. Integra VIAFLO384 or Agilent Bravo. The cells were then cultured for 24 hours in a cell incubator. For HBV infection, after PHH attachment on the culture plate, the plating medium was removed and replenished with PHH culture medium containing HBV virus. The PHH culture medium was prepared with Dulbecco's Modified Eagle Medium (DMEM)/F12 (1:1 in volume ratio) containing 10% fetal bovine serum (Gibco, Cat. 10099141), 5 ng/mL human epidermal growth factor (Gibco, Cat. PHG0311L), 20 ng/mL dexamethasone (Sigma, Cat. D4902-100 mg), 250 ng/mL human recombinant insulin (Gibco, Cat. 41400045) and 100 U/mL penicillin. HBV virus at 200 genome equivalent (GE) per cell with 4% PEG8000 (Sigma, Cat. P1458) containing culture medium were added to the PHH culture medium for infection. The cells were then cultured for 24 hours in cell incubator. Then the cell culture supernatant was removed. The HBV-infected PHH were cultured with sandwich culture method with MEI culture medium containing 1% DMSO and 0.25 mg/mL matrix gel for 72 hours. The supernatant was then refreshed with PHH culture medium containing different concentrations of testing compounds for two times with 72-hour interval. At the end of treatment, the supernatant was collected for viral markers measurements, including HBsAg, HBeAg, HBV DNA and cytotoxicity. HBsAg and HBeAg were detected using alphalisa method using their specific antibodies. For HBV DNA detection, HBV DNA Quantitative Fluorescence Diagnostic Kit (Sansure Biotech Inc.) was used following the manufacture's protocol. Cytotoxicity was determined using Cell Counting Kit-8 (CCK8, Dojindo Molecular Technologies, Inc.).

[2] = tested on: HBsAg; test: PHH HBV natural infection assay, HBsAg (alphalisa); conditions: Hepatitis B virus, Hepatocyte, read-out: HBsAg IC50
Procedure: as §1
(§2) The compounds of the present invention were tested for their capacity to inhibit HBsAg and HBeAg as described herein.

[3] = tested on: HBeAg; test: PHH HBV natural infection assay, HBeAg (alphalisa); conditions: Hepatitis B virus, Hepatocyte, read-out: HBeAg IC50
Procedure: as §1, §2

| Structure (SMILES) | CC50 at 144 h [1] [µM] | IC50 [2] [µM] | IC50 [3] [µM] |
| --- | --- | --- | --- |
| CC(C)(C)C(=O)NC1CC2(C1)CN(c1nc3cc(Cl)ccc3o1)C2 [Example 27, N-[2-(5-chloro-1,3-benzoxazol-2-yl)-2-azaspiro[3.3]heptan-6-yl]-2,2-dimethyl-propanamide] | > 100 | 5.67 | 3.69 |
| CC(C)CC(=O)NC1CC2(C1)CN(c1nc3cc(Cl)ccc3o1)C2 [Example 28, N-[2-(5-chloro-1,3-benzoxazol-2-yl)-2-azaspiro[3.3]heptan-6-yl]-3-methyl-butanamide] | 76.6 | 3.31 | 2.18 |
| CC(C)(O)C(=O)NC1CC2(C1)CN(c1nc3cc(Cl)ccc3o1)C2 [Example 29, N-[2-(5-chloro-1,3-benzoxazol-2-yl)-2-azaspiro[3.3]heptan-6-yl]-2-hydroxy-2-methyl-propanamide] | > 100 | 7.13 | 7.37 |
| O=C(NC1CC2(C1)CN(c1nc3cc(Cl)ccc3o1)C2)C1CC1(F)F (stereo not drawn) [Example 30, N-[2-(5-chloro-1,3-benzoxazol-2-yl)-2-azaspiro[3.3]heptan-6-yl]-2,2-difluoro-cyclopropanecarboxamide] | > 100 | 3.5 | 2.7 |
| O=C(NC1CC2(C1)CN(c1nc3cc(Cl)ccc3o1)C2)C1CC(F)(F)C1 [Example 31, N-[2-(5-chloro-1,3-benzoxazol-2-yl)-2-azaspiro[3.3]heptan-6-yl]-3,3-difluoro-cyclobutanecarboxamide] | > 100 | 6.98 | 6.22 |
| O=C(NC1CC2(C1)CN(c1nc3cc(Cl)ccc3o1)C2)C1CCC(F)(F)C1 (stereo not drawn) [Example 32, N-[2-(5-chloro-1,3-benzoxazol-2-yl)-2-azaspiro[3.3]heptan-6-yl]-3,3-difluoro-cyclopentanecarboxamide] | > 100 | 4.25 | 10.3 |
| CC1(C(=O)NC2CC3(C2)CN(c2nc4cc(Cl)ccc4o2)C3)CCS(=O)(=O)C1 (stereo not drawn) [Example 33, N-[2-(5-chloro-1,3-benzoxazol-2-yl)-2-azaspiro[3.3]heptan-6-yl]-3-methyl-1,1-dioxo-thiolane-3-carboxamide] | > 100 | 4.51 | 4.4 |
| O=C(NC1CC2(C1)CN(c1nc3cc(Cl)ccc3o1)C2)C1CS(=O)(=O)C1 [Example 34, N-[2-(5-chloro-1,3-benzoxazol-2-yl)-2-azaspiro[3.3]heptan-6-yl]-1,1-dioxo-thietane-3-carboxamide] | > 100 | 5.5 | 4.48 |
| O=C(CC1CS(=O)(=O)C1)NC1CC2(C1)CN(c1nc3cc(Cl)ccc3o1)C2 (stereo not drawn) [Example 35, N-[2-(5-chloro-1,3-benzoxazol-2-yl)-2-azaspiro[3.3]heptan-6-yl]-2-(1,1-dioxothietan-3-yl)acetamide] | > 100 | 2.36 | 2.22 |
| O=C(NC1CC2(C1)CN(c1nc3cc(Cl)ccc3o1)C2)C1CCS(=O)(=O)CC1 [Example 36, N-[2-(5-chloro-1,3-benzoxazol-2-yl)-2-azaspiro[3.3]heptan-6-yl]-1,1-dioxo-thiane-4-carboxamide] | > 100 | 8.28 | 4.03 |
| O=C(NC1CC2(C1)CN(c1nc3ccc(Cl)cc3o1)C2)c1ccnc(S(=O)(=O)C2CC2)c1 [Example 37, N-[2-(6-chloro-1,3-benzoxazol-2-yl)-2-azaspiro[3.3]heptan-6-yl]-2-cyclopropylsulfonyl-pyridine-4-carboxamide] | > 10 | 7.75 | 6.26 |
| COc1cc(C(=O)NC2CC3(C2)CN(c2nc4ccc(Cl)cc4o2)C3)ccn1 [Example 38, N-[2-(6-chloro-1,3-benzoxazol-2-yl)-2-azaspiro[3.3]heptan-6-yl]-2-methoxy-pyridine-4-carboxamide] | > 10 | 6.89 | 5.73 |
| COCCOc1cc(C(=O)NC2CC3(C2)CN(c2nc4cc(Cl)ccc4o2)C3)ccn1 [Example 39, N-[2-(5-chloro-1,3-benzoxazol-2-yl)-2-azaspiro[3.3]heptan-6-yl]-2-(2-methoxyethoxy)pyridine-4-carboxamide] | > 100 | 6.47 | 4.37 |
| CS(=N)(=O)c1ccc(C(=O)NC2CC3(C2)CN(c2nc4cc(Cl)ccc4o2)C3)o1 (stereo not drawn) [Example 40, N-[2-(5-chloro-1,3-benzoxazol-2-yl)-2-azaspiro[3.3]heptan-6-yl]-5-(methylsulfonimidoyl)furan-2-carboxamide] | > 100 | 6.13 | 4.78 |
| CC(C)Oc1cc(C(=O)NC2CC3(C2)CN(c2nc4ccc(Cl)cc4o2)C3)ccn1 [Example 41, N-[2-(6-chloro-1,3-benzoxazol-2-yl)-2-azaspiro[3.3]heptan-6-yl]-2-isopropoxy-pyridine-4-carboxamide] | > 10 | 5.87 | 3.81 |
| O=C(NC1CC2(C1)CN(c1nc3cc(Cl)ccc3o1)C2)c1ccc(C(F)(F)F)o1 [Example 42, N-[2-(5-chloro-1,3-benzoxazol-2-yl)-2-azaspiro[3.3]heptan-6-yl]-5-(trifluoromethyl)furan-2-carboxamide] | > 100 | 5.66 | 4.67 |
| COc1cc(C(=O)NC2CC3(C2)CN(c2nc4cc(Cl)ccc4o2)C3)ccn1 [Example 43, N-[2-(5-chloro-1,3-benzoxazol-2-yl)-2-azaspiro[3.3]heptan-6-yl]-2-methoxy-pyridine-4-carboxamide] | 84.8 | 1.76 | 1.01 |
| O=C(NC1CC2(C1)CN(c1nc3cc(Cl)ccc3o1)C2)c1ccc(S(=O)(=O)C2CC2)o1 [Example 44, N-[2-(5-chloro-1,3-benzoxazol-2-yl)-2-azaspiro[3.3]heptan-6-yl]-5-cyclopropylsulfonyl-furan-2-carboxamide] | > 100 | 2.27 | 1.28 |
| Cc1cc(C(=O)NC2CC3(C2)CN(c2nc4cc(Cl)ccc4o2)C3)ccn1 [Example 45, N-[2-(5-chloro-1,3-benzoxazol-2-yl)-2-azaspiro[3.3]heptan-6-yl]-2-methyl-pyridine-4-carboxamide] | 80.1 | 2.73 | 1.3 |
| COc1ccc(C(=O)NC2CC3(C2)CN(c2nc4cc(Cl)ccc4o2)C3)cn1 [Example 46, N-[2-(5-chloro-1,3-benzoxazol-2-yl)-2-azaspiro[3.3]heptan-6-yl]-6-methoxy-pyridine-3-carboxamide] | > 100 | 4.74 | 2.86 |
| C[S@](=N)(=O)c1ccc(C(=O)NC2CC3(C2)CN(c2nc4cc(Cl)ccc4o2)C3)o1 [Example 47, N-[2-(5-chloro-1,3-benzoxazol-2-yl)-2-azaspiro[3.3]heptan-6-yl]-5-[(S)-methylsulfonimidoyl]furan-2-carboxamide] | > 100 | 4.24 | 2.31 |
| CS(=O)(=O)c1ccc(C(=O)NC2CC3(C2)CN(c2nc4cc(Cl)cnc4o2)C3)o1 [Example 48, N-[2-(6-chlorooxazolo[5,4-b]pyridin-2-yl)-2-azaspiro[3.3]heptan-6-yl]-5-methylsulfonyl-furan-2-carboxamide] | > 100 | 3.8 | 2.95 |
| CCOc1cc(C(=O)NC2CC3(C2)CN(c2nc4cc(Cl)ccc4o2)C3)ccn1 [Example 49, N-[2-(5-chloro-1,3-benzoxazol-2-yl)-2-azaspiro[3.3]heptan-6-yl]-2-ethoxy-pyridine-4-carboxamide] | > 100 | 3.1 | 1.7 |
| CC(C)CS(=N)(=O)c1ccc(C(=O)NC2CC3(C2)CN(c2nc4cc(Cl)ccc4o2)C3)o1 (stereo not drawn) [Example 50, N-[2-(5-chloro-1,3-benzoxazol-2-yl)-2-azaspiro[3.3]heptan-6-yl]-5-(isobutylsulfonimidoyl)furan-2-carboxamide] | 95.4 | 1.66 | 1.49 |
| CS(=O)(=O)Cc1ccc(C(=O)NC2CC3(C2)CN(c2nc4cc(Cl)ccc4o2)C3)o1 [Example 51, N-[2-(5-chloro-1,3-benzoxazol-2-yl)-2-azaspiro[3.3]heptan-6-yl]-5-(methylsulfonylmethyl)furan-2-carboxamide] | > 100 | 2.22 | 1.95 |

Reference: US20230416238A1, “N-[(1,3-BENZOXAZOL-2-YL)-HETEROCYCLE]AMIDE DERIVATIVES FOR THE TREATMENT AND PROPHYLAXIS OF HEPATITIS B VIRUS INFECTION” (Hoffmann-La Roche Inc., priority 2020, published 2023)
